Legend:
MCF7 cells = test: Cell proliferation assay MCF7; type: cell-based; details: MCF7 human breast cancer cells; 120 hours; ATPlite 1 Step
Procedure, shortened: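 After 120 h of compound exposure (duplicates, DMSO at most 0.5%) in DMEM GlutaMAX with 10% FBS, ATPlite 1 Step luminescence measured cellular ATP. Compound was added 24 h after seeding, at a density chosen for ~90% confluence at the end.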

H3K4me3 mark = test: Histone lysine demethylase immunofluorescence assay, non-transfected U2OS cells; type: cell-based; details: Homo sapiens, staining of the H3K4me3 mark, 20 hours incubation with compound
Procedure, shortened: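 Non-transfected U2OS cells incubated with compounds 20 h in DMEM/5% FBS. Fixed cells immunostained for H3K4me3 with Hoechst counterstain and imaged by high-throughput microscopy. IC50 based on average cellular H3K4me3 staining.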

KDM4B (JMJD2B) = target: T1, KDM4B (JMJD2B) (Homo sapiens, UniProt O94953); test: Histone lysine demethylase AlphaLISA assay, KDM4B; type: biochemical; details: read-out: KDM4B HDME Inhibition IC50
T1 construct: 2-500; purchased BPS; host or cells: Bac (baculovirus system)
T1 sequence (O94953 2-500): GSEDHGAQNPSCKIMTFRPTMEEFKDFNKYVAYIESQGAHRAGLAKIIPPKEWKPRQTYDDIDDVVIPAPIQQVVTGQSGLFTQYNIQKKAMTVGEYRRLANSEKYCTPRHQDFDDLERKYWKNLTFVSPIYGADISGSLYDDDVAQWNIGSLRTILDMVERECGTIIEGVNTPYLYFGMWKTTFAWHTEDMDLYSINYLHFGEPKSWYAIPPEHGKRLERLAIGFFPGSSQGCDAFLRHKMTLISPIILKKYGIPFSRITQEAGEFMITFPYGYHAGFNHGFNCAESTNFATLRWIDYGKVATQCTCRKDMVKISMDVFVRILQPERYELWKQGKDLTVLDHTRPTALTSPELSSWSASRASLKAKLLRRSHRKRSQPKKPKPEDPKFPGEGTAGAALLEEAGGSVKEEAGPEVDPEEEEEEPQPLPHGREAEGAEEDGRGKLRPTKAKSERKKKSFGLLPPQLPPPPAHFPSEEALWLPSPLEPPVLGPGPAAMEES
Procedure, shortened: (§1)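 Biotinylated methylated H3 peptides (K9, K4, K27 or K36 marks) served as substrate, with 25 μM L-Asc and 10 μM α-KG. Enzymes were preincubated 10 min, then exposed to compounds (3% DMSO solutions) 10 min; product detected by AlphaLISA acceptor and streptavidin donor beads at room temperature in dark.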

KDM3B (JMJD1B) = target: T2, KDM3B (JMJD1B) (Homo sapiens, UniProt Q7LBC6); test: Histone lysine demethylase AlphaLISA assay, KDM3B; type: biochemical; details: read-out: KDM3B HDME Inhibition IC50
T2 construct: 842-1761; host or cells: Bac (baculovirus system)
T2 sequence (Q7LBC6 842-1761): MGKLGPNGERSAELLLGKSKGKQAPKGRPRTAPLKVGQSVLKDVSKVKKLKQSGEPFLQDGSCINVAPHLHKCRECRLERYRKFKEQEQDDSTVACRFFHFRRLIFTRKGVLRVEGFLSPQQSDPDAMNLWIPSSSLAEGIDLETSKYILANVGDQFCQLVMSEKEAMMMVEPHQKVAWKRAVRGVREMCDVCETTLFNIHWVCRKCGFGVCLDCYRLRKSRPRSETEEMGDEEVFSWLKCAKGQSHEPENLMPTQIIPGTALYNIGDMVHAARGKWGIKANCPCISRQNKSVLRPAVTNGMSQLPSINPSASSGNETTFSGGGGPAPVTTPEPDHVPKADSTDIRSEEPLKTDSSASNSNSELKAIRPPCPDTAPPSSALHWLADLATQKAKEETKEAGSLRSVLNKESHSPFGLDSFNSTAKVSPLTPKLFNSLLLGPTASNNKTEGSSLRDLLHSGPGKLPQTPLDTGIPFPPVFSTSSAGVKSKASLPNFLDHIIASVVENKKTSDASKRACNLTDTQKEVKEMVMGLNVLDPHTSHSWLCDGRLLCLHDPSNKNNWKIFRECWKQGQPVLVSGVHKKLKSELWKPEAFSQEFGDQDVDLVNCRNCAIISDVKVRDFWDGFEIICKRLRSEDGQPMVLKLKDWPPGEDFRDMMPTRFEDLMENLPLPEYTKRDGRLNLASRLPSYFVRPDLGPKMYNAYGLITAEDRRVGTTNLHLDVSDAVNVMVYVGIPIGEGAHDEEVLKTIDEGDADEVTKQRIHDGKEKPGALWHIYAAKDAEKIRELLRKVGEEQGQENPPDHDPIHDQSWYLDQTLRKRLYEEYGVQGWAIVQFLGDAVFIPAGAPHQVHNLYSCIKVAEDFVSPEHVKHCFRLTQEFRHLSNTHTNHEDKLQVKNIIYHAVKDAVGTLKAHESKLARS
Procedure, shortened: as §1

Compound | EC50 (MCF7 cells) | IC50 (H3K4me3 mark) | IC50 (KDM4B (JMJD2B)) | IC50 (KDM3B (JMJD1B))
C(=N\C1CC1)/c1ccnc(CNCCCCN2CCC2)c1 [Compound 44, N-{[2-({[4-(azetidin-1-yl)butyl]amino}methyl)-pyridin-4-yl]methylidene}-cyclopropanamine] | < 250 nM | < 250 nM | > 2500 nM | > 2500 nM
CN(C)CC1CCC(CNCc2cc(/C=N/C3CC3)ccn2)CC1 (stereo not drawn) [Compound 46, N-[(2-{[({4-[(dimethylamino)-methyl]cyclohexyl}-methyl)amino]-methyl}pyridin-4-yl)methylidene]-cyclopropanamine] | < 250 nM | < 250 nM | 250 to 2500 nM | > 2500 nM
CCN(CC)C(=O)CNCc1cc(/C=N/CCC2CCCCC2)ccn1 [Compound 57, 2-[({4-[[(2-cyclohexylethyl)imino]-methyl]pyridin-2-yl}methyl)amino]-N,N-diethylacetamide] | > 2500 nM | 250 to 2500 nM | < 250 nM | > 2500 nM
CCCCCCCC/N=C/c1ccnc(CNCC(=O)N(CC)CC)c1 [Compound 58, N,N-diethyl-2-[({4-[(octylimino)methyl]-pyridin-2-yl}methyl)amino]-acetamide] | > 2500 nM | > 2500 nM | > 2500 nM | > 2500 nM
CCN(CC)CCCCNCc1cc(/C=N/CCO)ccn1 [Compound 61, 2-[{[2-({[4-(diethylamino)-butyl]amino}-methyl)pyridin-4-yl]methylidene}-amino]ethan-1-ol] | < 250 nM | < 250 nM | < 250 nM | > 2500 nM
CCN(CCN(C)C)C(=O)CNCc1cc(C=O)ccn1 [Compound 101] | < 250 nM | < 250 nM | < 250 nM | > 2500 nM
CCN(CC)CCCCNCc1cc(C=O)ccn1 [Compound 107, 2-({[4-(diethylamino)-butyl]amino}-methyl)pyridine-4-carbaldehyde] | < 250 nM | < 250 nM | < 250 nM | > 2500 nM

Other lines, results leading:

EC50 (MCF7 cells) | IC50 (H3K4me3 mark) | IC50 (KDM4B (JMJD2B)) | IC50 (KDM3B (JMJD1B)) | Compound
< 250 nM | < 250 nM | < 250 nM | > 2500 nM | CN(C)C/C=C/CNCc1cc(/C=N/C2CC2)ccn1 [Compound 43, N-{[2-({[(2E)-4-(dimethylamino)but-2-en-1-yl]amino}-methyl)pyridin-4-yl]methylidene}-cyclopropanamine]
< 250 nM | < 250 nM | 250 to 2500 nM | > 2500 nM | CCN(CC)CCCCNCc1cc(/C=N/CC(F)(F)C(F)(F)F)ccn1 [Compound 62, {[2-({[4-(diethylamino)-butyl]amino}methyl)pyridin-4-yl]methylidene} (2,2,3,3,3-pentafluoropropyl)-amine]
> 2500 nM | 250 to 2500 nM | < 250 nM | > 2500 nM | CON=Cc1ccnc(CNCCCN(C)C)c1 [Compound 64, [3-(dimethylamino)-propyl]({4-[(methoxyimino)-methyl]pyridin-2-yl}methyl)amine]
< 250 nM | < 250 nM | > 2500 nM | > 2500 nM | CCN(CC)CCCCNCc1cc(/C=N\CCC2CCCCC2)ccn1 [Compound 67, (2-cyclohexylethyl)-({[2-({[4-(diethylamino)-butyl]amino}methyl)pyridin-4-yl]methylidene})-amine]
< 250 nM | < 250 nM | 250 to 2500 nM | > 2500 nM | O=Cc1ccnc(CNCCCN2CCCC2)c1 [Compound 111, 2-({[3-(pyrrolidin-1-yl)propyl]amino}-methyl)pyridine-4-carbaldehyde]

Source: US9650339B2, “Inhibitors of histone demethylases” (Gilead Sciences, Inc., priority 2013, dated 2017)
